{
  "source": "patent US11168052B2",
  "about": "“Carbamate derivative compounds, processes for preparing them and their uses” (BIO-PHARM SOLUTIONS CO., LTD., priority 2016, dated 2021)",
  "key": {"[1]": {"tested_on": "BIC-induced clonic seizure in mice", "test": "Chemical induced seizure model (BIC)", "format": "in vivo, ICR mice", "conditions": "Mus musculus, ip", "procedure": "Male ICR mice (purchased from Orient Bio Inc. Korea) of body weight 19-26 g were used for these studies. The test materials were administered intraperitoneal route in a volume of 10 ul/g weight. Pharmacological effects of all the test materials were evaluated to compared test groups (n=6) with a control group (n=6). Control group was administrated vehicle, only. The peak time was determined by administration test material's random dose for 0.5 and 1 hour. The time that the most protect was defined peak time and ED50 was determined by other dose administration at peak time. BIC was dissolved in 0.9% saline and administered subcutaneously (s.c.) at its CD97 (convulsive dose 97%) the dose of BIC that produced clonic seizures in 97% into a loose fold of skin in the midline of the neck in a volume of 10 ul/g body weight. The animals were then transferred to observation cages and observed continuously for 30 min. Clonic seizure was elicited in approximately 95% of control group. Protection was defined as complete absence of a clonic seizure over the 30-min observation period. The time that the most protect was defined peak time and ED50 was determined by other dose administration at peak time. The effective dose of compound necessary to protect against seizures to 50% of controls (i.e., ED50) was determined by log probit analysis using Excel 2007 (Microsoft)."}, "[2]": {"tested_on": "Lithium-pilocarpine induced seizure in rats", "test": "Lithium pilocarpine model (inter)", "format": "in vivo, Sprague-Dawley rats", "conditions": "Rattus norvegicus", "procedure": "Male Sprague-Dawley rats (purchased from Orient Bio Inc. Korea) of body weight 175 grams were used for these studies and 3 rats per cage were housed for 4-5 days. On the day prior to SE, rats received 127 mg/kg lithium chloride (Sigma, St. Louis, Mo., U.S.A.) intraperitoneally (i.p.). Approximately 18-20 h following this treatment, rats were given an i.p. injection of the concentration capable of inducing 97% intermittent convulsions pilocarpine(Sigma, 30-43 mg/kg). An i.p. injection of 2 mg/kg methyl-scopolamine (Sigma) was administered 30 min prior to pilocarpine to block the effects of the muscarinic agonist on peripheral cholinergic receptors. Test drugs were dissolved in 20% tween80 (Sigma).\nThe drugs were administered intraperitoneally (i.p.) in a volume of 2 μl/g body weight. Pharmacological effects of all of the test materials were evaluated to compare test groups (n=6) with a control group (n=6). Control group was administered vehicle only. The efficacy was measured 0.5, 1, 2, or 4 hours after the administration of the test material. The time point that the most animals were protected was defined as peak time and the ED50 was determined at peak time. The animals were then transferred to observation cages and observed continuously for 90 min Seizure was elicited in approximately 95% of the control group. […]"}, "[3]": {"tested_on": "Post operation-induced pain model in rats", "test": "Antiallodynic activity on post operative-induced pain model (PO), von Frey test", "format": "in vivo, Sprague-Dawley rats", "conditions": "dose 200 mg/kg, von Frey paw withdrawal threshold relative to sham", "description": "Male Sprague-Dawley rats (Orient Bio, Korea, 230-250g) were habituated at least 3 days before surgery, and were allowed free access to food and water throughout the experimentation. Room temperature and humidity were maintained at 24±2 and 50±10%, respectively. The process of performing the post-operation model's surgery was adapted from Brennan et al (1996). At first, rats with allodynia (threshold valueless than 8 g) were excluded in Pre-von Frey Test. During the post-operation surgery, rats were anesthetized under gaseous anesthesia with 2% isoflurane. The rat was placed, lying face down, on 37 degree warm plate to prevent against hypothermia. The ipsilateral plantar aspect (left side) of the hind paw was prepared in a sterile manner with a 10% povidone-iodine solution. […]\nFor efficacy measure, the threshold value of group C was assigned 100% efficacy, and the percentage of the threshold values of group A compared to group C (for each different dose level) were calculated as the efficacies. Base on these efficacy values, ED50 was calculated using log fitting. […]\nFor pain threshold test, all animals were placed in a stainless steel meshed chamber and habituated for 30 min in the test cage. The tactile sensitivity of the ipsilateral hind paw was measured using the up-and-down method (Dixon, 1980) with seven von Frey monofilaments (0.4, 1, 2, 4, 6, 8, and 15 g) using 3 trials. […]"}},
  "data": [
    {"smiles": "NC(=O)O[C@@H]1CCc2cccc(Cl)c2[C@@H]1O", "note": "[Example 1, (1S, 2R)-8-chloro-1-hydroxy-1,2,3,4-tetrahydronaphthalen-2-yl carbamate]", "values": [
      {"measurement": "ED50", "setting": "[1]", "value": 28.9, "unit": "mg/kg"},
      {"measurement": "ED50", "setting": "[2]", "value": 24.5, "unit": "mg/kg"},
      {"measurement": "Post Operation Efficacy (% of sham threshold)", "setting": "[3]", "value": "200 (29.8%)"}
    ]}
  ]
}
